The values below come from patent US4260630A, “Skin diseases” (priority 1977, dated 1981).

The test system of one data set is cutaneous tissue. The note with it: in vivo; cited from earlier work.
Another data set concerns DNA. As to conditions: cited from earlier work.
In data set [1] the test system is Saccharomyces cerevisiae. The data set can be described thus: Repair of photoinduced lesions in yeast (repair mutants, agar holding). It is filed as cell-based. The note with it: wild-type cells. From the text: Biophys. Acta, 395, 393-404.
Consequently, it appears that the excision repair pathway in wild type and rad9-4 cells is essential in AHR for both compounds.

A short description of data set [2]: Comparison of activity with compounds of analogous structure. The note with it: comparison with the compounds of the invention. The source says: V. In order to compare the activity of the compounds of the invention with compounds having an analogous structure
The subject of data set [3] is Saccharomyces cerevisiae. The data set can be described thus: Induction of nuclear back mutations (his- to His+) in yeast. As to conditions: vs 3-CPs or angelicin plus 365 nm light. The method, then: A wild-type strain 211-1aM (29) of Saccharomyces cerivisiae was used, and the following mutants derived from it: S24-12c rad2-20 deficient in excision repair and S25-13b rad9-4 likely to be blocked in a recombinational repair pathway; a double mutant S 2057NL-24 rad2-20 -rad9-4 clone B was obtained by tetrad analysis of a heterozygote [formula]
The media and culture conditions used were as described in D. Averbeck, E. Moustacchi, (1975) Biochim. Biophys. Acta, 395, 393-404.
10^6 cells/ml in saline (0.9% NaCl) were treated for 30 minutes with the drugs at a final concentration of 10 μg/ml and 1.2% ethanol present.
A Philips HPW 125 culot Edison high pressure mercury lamp was used with maximal output at the wavelength 365 nm. The irradiation dose measured by actinometry was 10 J/m^2 per sec., using the following set up: 10 ml of actinometer solution (or the cell suspension, usually 1×10^6 cells/ml), stirred continuously by a magnetic stirrer, were irradiated at room temperature in an open Petri dish of 10 cm diameter at a distance of 10 cm from the center of the light bulb which was mounted horizontally. A 2 mm thick pyrex glass sheet (20×25 cm) was placed in the center of the light beam to cut out UV light of wavelength below 340 nm. […]

In data set [4] the test system is skin of homozygote albino mice strain XVII nc/Z. The data set can be described thus: Chronic topical application on the ears of mice plus 365 nm UV irradiation (tumors, skin reactions). Format: in vivo. As for the experimental part: The experiments were effected on groups of 40 mice, male and female.
After 115 topical applications of psoralen, followed each time by 10 minutes of irradiation (cumulative doses of 2.07×10^6 J/m^2), 100% of the animals developed a tumor; 50% having tumors on two ears.
3-CPs was also tested intraperitoneally (36 injections of 0.4 mg each over a period of 7 weeks).
In all these experiments the U.V. lamp was of the type of HPW 125 W, manufactured by Philips.

[5] abbreviates: 115 topical applications, cumulative doses 2.07×10^6 J/m^2.

For 3,4-dibenzo-5,8-dimethylpsoralen, the photosensitizing activity result in the data set on cutaneous tissue was “inactive or to induce very weak photosensitivity”.
As for `Cc1cc2cc3c(C)c(C)c(=O)oc3c(C)c2o1` [3,4,5',8-tetramethylpsoralen], the photosensitizing activity result in the data set on cutaneous tissue was “inactive or to induce very weak photosensitivity”.
Regarding `Cc1cc2cc3c4c(c(=O)oc3c(C)c2o1)CCCC4` [3,4-cyclohexeno-5',8-dimethylpsoralen], the photosensitizing activity result in the data set with cutaneous tissue is “inactive or to induce very weak photosensitivity”.
Turning to `Cc1cc2cc3cc(C)c(=O)oc3c(C)c2o1` [3,5',8-trimethylpsoralen], the photosensitizing activity result in the data set with cutaneous tissue is “inactive or to induce very weak photosensitivity”.
Regarding `Cc1cc2cc3ccoc3cc2oc1=O` [3-methylpsoralen], in the data set with cutaneous tissue, the photosensitizing activity result was “inactive or to induce very weak photosensitivity”.
As to `CCCCc1c(C)c2cc3cc(C)oc3c(C)c2oc1=O` [3-n-butyl-4,5',8-trimethylpsoralen], in the data set with cutaneous tissue, the photosensitizing activity entry was “inactive or to induce very weak photosensitivity”.
As for `Cc1cc2cc3c(C)cc(=O)oc3c(C)c2o1` [4,5',8-trimethylpsoralen], in the data set on DNA (in vitro), the “reactivity with DNA in vitro relative to 8-MOP” value was “about 12 times more reactive”.
With `O=c1ccc2ccc3occc3c2o1` [angelicin], the “kinetics of agar holding recovery (AHR)” value in the data set with Saccharomyces cerevisiae [1] is listed as “same kinetics of AHR”. Also, in the data set on DNA, the “binding to DNA and RNA” value was “bind equally well to DNA and RNA”.
Take `CC(C)(C)OC(=O)c1cc2cc3ccoc3cc2oc1=O` [psoralen 3-t-butylcarboxylate]: the outcome in data set [2] was inactive.
In the case of `O=c1ccc2cc3ccoc3cc2o1` [psoralen], in the data set on Saccharomyces cerevisiae [3], the “effectiveness in inducing nuclear back mutations (his- to His+) relative to monofunctional furocoumarins or 254 nm UV alone” value is listed as “at least 10 fold”. In addition, the photosensitizing activity result with cutaneous tissue is listed as “most effective photo-sensitizers”. In the data set with Saccharomyces cerevisiae [1], the “kinetics of agar holding recovery (AHR)” value is recorded as “same kinetics of AHR”. Also, in data set [4] (24 applications, cumulative dose 4.5×10^5 J/m^2), the “animals developing a tumor on ears” value was determined as 3%. Besides, in data set [4] (setting [5]), the “animals developing a tumor on ears” value is listed as 100% and the “animals having tumors on two ears” value is on record as 50%. For the same compound, the cutaneous reactions entry in data set [4] (chronic topical, two ears, 365 nm UV) is reported as “significant cutaneous reactions, such as an erythema, followed by intensive chronic inflammation even followed by necrosis”. The “dose dependence of tumor development on ears” value in data set [4] (mouse, in vivo) is on record as “dose dependent”.
